These results are taken from US11306078B2, “Piperidine CXCR7 receptor modulators” (IDORSIA PHARMACEUTICALS LTD., priority 2016, dated 2022).

The target of this test is human chemokine receptor CXCR7 (Homo sapiens (Human), UniProt P25106). Description: Tango CXCR7-bla U2OS beta-arrestin recruitment assay (beta-lactamase reporter, FRET), antagonism of CXCL12/SDF1-α.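 Also: compounds preincubated 15 min before CXCL12 addition, then 22 h at 37 °C, FRET emission ratio read with CCF4-AM substrate after 2 h.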 To be noted: antagonistic effect on CXCR7; Tango CXCR7-bla U2OS cells, CXCL12/SDF1-α at its EC80. Type of test: cell-based.
Chain of human chemokine receptor CXCR7 (P25106 whole entry): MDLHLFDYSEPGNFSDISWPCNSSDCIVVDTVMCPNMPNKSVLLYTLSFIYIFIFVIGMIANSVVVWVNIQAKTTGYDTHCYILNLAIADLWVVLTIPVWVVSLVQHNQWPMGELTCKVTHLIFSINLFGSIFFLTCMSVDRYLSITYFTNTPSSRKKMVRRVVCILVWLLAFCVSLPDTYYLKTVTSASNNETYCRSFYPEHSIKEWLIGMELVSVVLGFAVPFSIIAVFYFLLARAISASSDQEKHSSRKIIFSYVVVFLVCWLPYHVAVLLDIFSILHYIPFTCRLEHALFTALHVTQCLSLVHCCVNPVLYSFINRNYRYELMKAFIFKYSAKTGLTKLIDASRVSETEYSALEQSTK

By IC50 is commonly meant the midpoint of a concentration-inhibition curve. Low readings indicate greater potency in that assay, high ones weaker potency in that assay. Take `CCOCC(C)NC(=O)[C@@H]1CN(C2CCCCC2)CC[C@H]1NC(=O)c1cc(-c2ccc(F)cc2F)on1` (relative stereo) [Example 1.083, (3R*,4R*)-1-Cyclohexyl-4-{[5-(2,4-difluoro-phenyl)-isoxazole-3-carbonyl]-amino}-piperidine-3-carboxylic acid ((1RS)-2-ethoxy-1-methyl-ethyl)-amide]: the 50% inhibitory concentration (IC50) was 0.076 µM.
With `CC1(NC(=O)[C@@H]2CN(C3CCCCC3)CC[C@H]2NC(=O)c2cc(-c3ccc(F)cc3F)on2)CCOC1` (relative stereo) [Example 1.084, (3R*,4R*)-1-Cyclohexyl-4-{[5-(2,4-difluoro-phenyl)-isoxazole-3-carbonyl]-amino}-piperidine-3-carboxylic acid ((3RS)-3-methyl-tetrahydro-furan-3-yl)-amide] the figure was 0.223 µM; with `Cc1nnc(C(C)NC(=O)[C@@H]2CN(C3CCCCC3)CC[C@H]2NC(=O)c2cc(-c3ccc(F)cc3F)on2)o1` (relative stereo) [Example 1.085, (3R*,4R*)-1-Cyclohexyl-4-{[5-(2,4-difluoro-phenyl)-isoxazole-3-carbonyl]-amino}-piperidine-3-carboxylic acid [(1RS)-1-(5-methyl-[1,3,4]oxadiazol-2-yl)-ethyl]-amide], 0.268 µM; with `CC(NC(=O)[C@@H]1CN(C2CCCCC2)CC[C@H]1NC(=O)c1cc(-c2ccc(F)cc2F)on1)c1ncc(F)cc1F` (relative stereo) [Example 1.086, (3R*,4R*)-1-Cyclohexyl-4-{[5-(2,4-difluoro-phenyl)-isoxazole-3-carbonyl]-amino}-piperidine-3-carboxylic acid [(1RS)-1-(3,5-difluoro-pyridin-2-yl)-ethyl]-amide], 0.154 µM.
In the case of `CC1(NC(=O)[C@@H]2CN(C3CCCCC3)CC[C@H]2NC(=O)c2cc(-c3ccc(F)cc3F)on2)CC(F)(F)C1` (relative stereo) [Example 1.087, rac-(3R*,4R*)-1-Cyclohexyl-4-{[5-(2,4-difluoro-phenyl)-isoxazole-3-carbonyl]-amino}-piperidine-3-carboxylic acid (3,3-difluoro-1-methyl-cyclobutyl)-amide], the midpoint of inhibition, the IC50, lay at 0.943 µM.
On to `O=C(N[C@@H]1CCN(C2CCCCC2)C[C@H]1C(=O)N1CCC(c2ccccn2)C1)c1cc(-c2ccc(F)cc2F)on1` (relative stereo) [Example 1.089, 5-(2,4-Difluoro-phenyl)-isoxazole-3-carboxylic acid [(3R*,4R*)-1-cyclohexyl-3-((3RS)-3-pyridin-2-yl-pyrrolidine-1-carbonyl)-piperidin-4-yl]-amide], for which 0.472 µM corresponded to half-maximal inhibition (IC50).
With `C[C@@H](NC(=O)[C@@H]1CN(C2CCCCC2)CC[C@H]1NC(=O)c1cc(-c2ccc(F)cc2F)on1)C1CCC1` (relative stereo) [Example 1.091, (3R*,4R*)-1-Cyclohexyl-4-{[5-(2,4-difluoro-phenyl)-isoxazole-3-carbonyl]-amino}-piperidine-3-carboxylic acid ((R)-1-cyclobutyl-ethyl)-amide] the figure was 0.103 µM.
`C[C@@H](NC(=O)[C@@H]1CN(C2CCCCC2)CC[C@H]1NC(=O)c1cc(-c2ccc(F)cc2F)on1)c1ncccc1F` (relative stereo) [Example 1.092, (3R*,4R*)-1-Cyclohexyl-4-{[5-(2,4-difluoro-phenyl)-isoxazole-3-carbonyl]-amino}-piperidine-3-carboxylic acid [(R)-1-(3-fluoro-pyridin-2-yl)-ethyl]-amide] gave an IC50 of 0.001 µM.
The value for `C[C@@H](NC(=O)[C@@H]1CN(C2CCCCC2)CC[C@H]1NC(=O)c1cc(-c2ccc(F)cc2F)on1)C(C)(C)C` (relative stereo) [Example 1.093, (3R*,4R*)-1-Cyclohexyl-4-{[5-(2,4-difluoro-phenyl)-isoxazole-3-carbonyl]-amino}-piperidine-3-carboxylic acid ((R)-1,2,2-trimethyl-propyl)-amide] was 0.867 µM; that for `C[C@@H](NC(=O)[C@@H]1CN(C2CCCCC2)CC[C@H]1NC(=O)c1cc(-c2ccc(F)cc2F)on1)c1ncc(F)cn1` (relative stereo) [Example 1.094, (3R*,4R*)-1-Cyclohexyl-4-{[5-(2,4-difluoro-phenyl)-isoxazole-3-carbonyl]-amino}-piperidine-3-carboxylic acid [(R)-1-(5-fluoro-pyrimidin-2-yl)-ethyl]-amide] was 0.1 µM.
In turn, `C[C@@H]1CCC[C@H]1N1CC[C@@H](NC(=O)c2cn(-c3ccc(F)cc3F)nn2)[C@H](C(=O)N(C)C)C1` (relative stereo) [Example 1.098, (3R*,4R*)-4-{[1-(2,4-Difluoro-phenyl)-1H-[1,2,3]triazole-4-carbonyl]-amino}-1-((1RS,2RS)-2-Methyl-cyclopentyl)-piperidine-3-carboxylic acid dimethylamide] gave an IC50 of 0.276 µM.
With `C[C@@H]1CCC[C@H]1N1CC[C@@H](NC(=O)c2cc(-c3c(F)cc(F)cc3F)on2)[C@H](C(=O)N(C)C)C1` (relative stereo) [Example 1.101, (3R*,4R*)-1-((1RS,2RS)-2-Methyl-cyclopentyl)-4-{[5-(2,4,6-trifluoro-phenyl)-isoxazole-3-carbonyl]-amino}-piperidine-3-carboxylic acid dimethylamide] the figure was 0.045 µM.
For `C[C@@H]1CCC[C@H]1N1CC[C@@H](NC(=O)c2cc(-c3c(F)cc(F)cc3F)on2)[C@H](C(=O)N2CCC2)C1` (relative stereo) [Example 1.108, 5-(2,4,6-Trifluoro-phenyl)-isoxazole-3-carboxylic acid [(3R*,4R*)-3-(azetidine-1-carbonyl)-1-((1RS,2RS)-2-methyl-cyclopentyl)-piperidin-4-yl]-amide], the IC50 is 0.581 µM.
The value for `COCC(C)(C)NC(=O)[C@@H]1CN([C@@H]2CCC[C@H]2C)CC[C@H]1NC(=O)c1cc(-c2c(F)cc(F)cc2F)on1` (relative stereo) [Example 1.114, (3R*,4R*)-1-((1RS,2RS)-2-Methyl-cyclopentyl)-4-{[5-(2,4,6-trifluoro-phenyl)-isoxazole-3-carbonyl]-amino}-piperidine-3-carboxylic acid (2-methoxy-1,1-dimethyl-ethyl)-amide] was 0.626 µM; that for `C[C@@H](NC(=O)[C@@H]1CN(C2CCCCC2)CC[C@H]1NC(=O)c1cn(-c2ccc(F)cc2F)nn1)c1ccccn1` (relative stereo) [Example 1.117, (3R*,4R*)-1-Cyclohexyl-4-{[1-(2,4-difluoro-phenyl)-1H-[1,2,3]triazole-4-carbonyl]-amino}-piperidine-3-carboxylic acid ((R)-1-pyridin-2-yl-ethyl)-amide] was 0.068 µM.
The value for `C[C@@H](NC(=O)[C@@H]1CN(C2CCCC2)CC[C@H]1NC(=O)c1cn(-c2ccc(F)cc2F)nn1)c1ccccn1` (relative stereo) [Example 1.118, (3R*,4R*)-1-Cyclopentyl-4-{[1-(2,4-difluoro-phenyl)-1H-[1,2,3]triazole-4-carbonyl]-amino}-piperidine-3-carboxylic acid ((R)-1-pyridin-2-yl-ethyl)-amide] was 0.036 µM; that for `C[C@@H](NC(=O)[C@@H]1CN(CC2CC2)CC[C@H]1NC(=O)c1cn(-c2ccc(F)cc2F)nn1)c1ccccn1` (relative stereo) [Example 1.119, (3R*,4R*)-1-Cyclopropylmethyl-4-{[1-(2,4-difluoro-phenyl)-1H-[1,2,3]triazole-4-carbonyl]-amino}-piperidine-3-carboxylic acid ((R)-1-pyridin-2-yl-ethyl)-amide] was 0.146 µM.
With `C[C@@H](NC(=O)[C@@H]1CN(C2CCCC2)CC[C@H]1NC(=O)c1cc(-c2c(F)cc(F)cc2F)on1)c1ccccn1` (relative stereo) [Example 1.122, (3R*,4R*)-1-Cyclopentyl-4-{[5-(2,4,6-trifluoro-phenyl)-isoxazole-3-carbonyl]-amino}-piperidine-3-carboxylic acid ((R)-1-pyridin-2-yl-ethyl)-amide] the figure was 0.01 µM; with `C[C@@H](NC(=O)[C@@H]1CN(CC2CC2)CC[C@H]1NC(=O)c1cc(-c2c(F)cc(F)cc2F)on1)c1ccccn1` (relative stereo) [Example 1.123, (3R*,4R*)-1-Cyclopropylmethyl-4-{[5-(2,4,6-trifluoro-phenyl)-isoxazole-3-carbonyl]-amino}-piperidine-3-carboxylic acid ((R)-1-pyridin-2-yl-ethyl)-amide], 0.015 µM; with `C[C@@H]1CCC[C@H]1N1CC[C@@H](NC(=O)c2cc(-c3c(F)cc(F)cc3F)on2)[C@H](C(=O)N[C@H](C)c2ccccn2)C1` (relative stereo) [Example 1.124, (3R*,4R*)-1-((1RS,2RS)-2-Methyl-cyclopentyl)-4-{[5-(2,4,6-trifluoro-phenyl)-isoxazole-3-carbonyl]-amino}-piperidine-3-carboxylic acid ((R)-1-pyridin-2-yl-ethyl)-amide], 0.016 µM.
With `C[C@@H](NC(=O)[C@@H]1CN(C2CCCCC2)CC[C@H]1NC(=O)c1cc(-c2ccc(F)cc2F)no1)c1ccccn1` (relative stereo) [Example 1.125, (3R*,4R*)-1-Cyclohexyl-4-{[3-(2,4-difluoro-phenyl)-isoxazole-5-carbonyl]-amino}-piperidine-3-carboxylic acid ((R)-1-pyridin-2-yl-ethyl)-amide], the half-maximal inhibitory concentration (IC50) was 0.081 µM.
The value for `C[C@@H](NC(=O)[C@@H]1CN(C2CCCC2)CC[C@H]1NC(=O)c1cc(-c2ccc(F)cc2F)no1)c1ccccn1` (relative stereo) [Example 1.126, (3R*,4R*)-1-Cyclopentyl-4-{[3-(2,4-difluoro-phenyl)-isoxazole-5-carbonyl]-amino}-piperidine-3-carboxylic acid ((R)-1-pyridin-2-yl-ethyl)-amide] was 0.049 µM; that for `C[C@@H](NC(=O)[C@@H]1CN(C2CCCCC2)CC[C@H]1NC(=O)c1cn(-c2ccc(F)cc2F)nn1)c1cnccn1` (relative stereo) [Example 1.127, (3R*,4R*)-1-Cyclohexyl-4-{[1-(2,4-difluoro-phenyl)-1H-[1,2,3]triazole-4-carbonyl]-amino}-piperidine-3-carboxylic acid ((R)-1-pyrazin-2-yl-ethyl)-amide] was 0.36 µM.
